Results on eight molecules are retold here after patent US10004701B2, “Methods and compositions for treating infection” (UNIVERSITY OF ROCHESTER, priority 2012, dated 2018).

Test in all cases: AK assay 384-well format, Prestwick library screening
The test system of one assay is E. faecium. The class given is cell-based, Enterococcus faecium. The note with it: Enterococcus faecium, 3 h, 50 μM final drug concentration.
Assay [1] has as its system S. aureus strain USA300-0114. The class given is cell-based, Staphylococcus aureus. The note with it: Staphylococcus aureus, USA300, 3 h, 50 μM final drug concentration.
The test system of another assay is K. pneumoniae. The class given is cell-based, Klebsiella pneumoniae. The following applies: Klebsiella pneumoniae, 3 h, 50 μM final drug concentration.
Assay [2] concerns A. baumannii strain 98-37-09. The class given is cell-based, Acinetobacter baumannii. The following applies: Acinetobacter baumannii, 983709, 3 h, 50 μM final drug concentration.
In a further assay the test system is P. aeruginosa. The class given is cell-based, Pseudomonas aeruginosa. The following applies: Pseudomonas aeruginosa, 3 h, 50 μM final drug concentration.
In the next assay the test system is E. cloacae. The class given is cell-based, Enterobacter cloacae. The following applies: Enterobacter cloacae, 3 h, 50 μM final drug concentration.
For another assay, the system named is E. coli. The class given is cell-based, Escherichia coli. The note with it: Escherichia coli, 3 h, 50 μM final drug concentration.
Setting [3] is: planktonic E. faecium, 384-well, cutoff for positive-scoring molecules 3-fold increase, read-out: AK-based Prestwick Library Screening Results: E. faecium (increase in extracellular AK activity).
[4] abbreviates: planktonic S. aureus, 384-well, cutoff for positive-scoring molecules 3-fold increase, read-out: AK-based Prestwick Library Screening Results: S. aureus (increase in extracellular AK activity).
Setting [5] is: planktonic K. pneumoniae, 384-well, cutoff for positive-scoring molecules 3-fold increase, read-out: AK-based Prestwick Library Screening Results: K. pneumoniae (increase in extracellular AK activity).
The mark [6] stands for this setting: planktonic A. baumannii, 384-well, cutoff for positive-scoring molecules 3-fold increase, read-out: AK-based Prestwick Library Screening Results: A. baumannii (increase in extracellular AK activity).
The mark [7] stands for this setting: planktonic P. aeruginosa, 384-well, cutoff for positive-scoring molecules 3-fold increase, read-out: AK-based Prestwick Library Screening Results: P. aeruginosa (increase in extracellular AK activity).
[8] abbreviates: planktonic E. cloacae, 384-well, cutoff for positive-scoring molecules 3-fold increase, read-out: AK-based Prestwick Library Screening Results: E. cloacae (increase in extracellular AK activity).
The mark [9] stands for this setting: planktonic E. coli, 384-well, cutoff for positive-scoring molecules 3-fold increase, read-out: AK-based Prestwick Library Screening Results: E. coli (increase in extracellular AK activity).

Each structure is given as a SMILES string. Structures can show the parent of a compound that is named as a salt. Where two headings read alike, the source gives them in different places.

Turning to `C=C[C@]12CN(C)[C@@H]3[C@H]4CO[C@H](C[C@H]41)[C@]1(C(=O)Nc4ccccc41)[C@@H]32` [Gelsemine], the fold induction at 50 µM in the assay on E. faecium (planktonic, […], read-out: AK-based Prestwick Library Screening Results, E. faecium (fold increase in extracellular AK activity)) worked out at 0.9; in assay [1] (planktonic, […], read-out: AK-based Prestwick Library Screening Results, S. aureus (fold increase in extracellular AK activity)), 0.7; in the assay on K. pneumoniae (planktonic, […], read-out: AK-based Prestwick Library Screening Results, K. pneumoniae (fold increase in extracellular AK activity)), 0.7; in assay [2] (planktonic, […], read-out: AK-based Prestwick Library Screening Results, A. baumannii (fold increase in extracellular AK activity)), 0.7; with P. aeruginosa (planktonic, […], read-out: AK-based Prestwick Library Screening Results, P. aeruginosa (fold increase in extracellular AK activity)) it was 0.9; in the assay with E. cloacae (planktonic, […], read-out: AK-based Prestwick Library Screening Results, E. cloacae (fold increase in extracellular AK activity)) it was 0.9. Further, the fold induction at 50 µM with E. coli (planktonic, […], read-out: AK-based Prestwick Library Screening Results, E. coli (fold increase in extracellular AK activity)) worked out at 0.9.
For the molecule `CC(=O)N(O)CCCCCNC(=O)CCC(=O)N(O)CCCCCNC(=O)CCC(=O)N(O)CCCCCN` [Deferoxamine mesylate], the fold induction at 50 µM in the assay on E. faecium (planktonic, cutoff for positive 3-fold increase, read-out: AK-based Prestwick Library Screening Results, E. faecium (fold increase in extracellular AK activity)) is 0.9; in assay [1] (planktonic, cutoff for positive 3-fold increase, read-out: AK-based Prestwick Library Screening Results, S. aureus (fold increase in extracellular AK activity)), 0.4; in the assay on K. pneumoniae (planktonic, cutoff for positive 3-fold increase, read-out: AK-based Prestwick Library Screening Results, K. pneumoniae (fold increase in extracellular AK activity)), 0.5; in assay [2] (planktonic, cutoff for positive 3-fold increase, read-out: AK-based Prestwick Library Screening Results, A. baumannii (fold increase in extracellular AK activity)) it was 0.4; with P. aeruginosa (planktonic, cutoff for positive 3-fold increase, read-out: AK-based Prestwick Library Screening Results, P. aeruginosa (fold increase in extracellular AK activity)) it was 0.4; in the assay on E. cloacae (planktonic, cutoff for positive 3-fold increase, read-out: AK-based Prestwick Library Screening Results, E. cloacae (fold increase in extracellular AK activity)) it was 0.4. In addition, the fold induction at 50 µM with E. coli (planktonic, cutoff for positive 3-fold increase, read-out: AK-based Prestwick Library Screening Results, E. coli (fold increase in extracellular AK activity)) turned out to be 0.4.
Consider `C=N[C@@H](C(=O)N[C@@H]1C(=O)N2[C@@H]1SC(C)(C)[C@@H]2C(=O)O)c1ccccc1` [Metampicillin sodium salt], for which the fold induction at 50 µM with E. faecium (setting [3]) worked out at 1.6; in assay [1] (setting [4]) it was 1.3; in the assay on K. pneumoniae (setting [5]), 1; in assay [2] (setting [6]) it was 1.1; with P. aeruginosa (setting [7]), 1.3; in the assay with E. cloacae (setting [8]), 4.3. Also, the fold induction at 50 µM in the assay on E. coli (setting [9]) amounted to 16.8.
As for `Cc1ccc(N(CC2=NCCN2)c2cccc(O)c2)cc1` [Phentolamine hydrochloride], the fold induction at 50 µM with E. faecium (setting [3]) is 1; in assay [1] (setting [4]), 1.1; in the assay on K. pneumoniae (setting [5]) it was 1.1; in assay [2] (setting [6]), 1.4; in the assay on P. aeruginosa (setting [7]) it was 1.2; in the assay with E. cloacae (setting [8]), 1.2. Besides, the fold induction at 50 µM with E. coli (setting [9]) was found to be 1.4.
Consider `O=C(O)/C=C/c1ccc(O)c(O)c1` [Caffeic acid], for which the fold induction at 50 µM in the assay with E. faecium (planktonic, cutoff for positive-scoring molecules 3-fold increase, read-out: AK-based Prestwick Library Screening Results, E. faecium (fold increase in extracellular AK activity)) came to 0.9; in assay [1] (planktonic, cutoff for positive-scoring molecules 3-fold increase, read-out: AK-based Prestwick Library Screening Results, S. aureus (fold increase in extracellular AK activity)), 0.8; with K. pneumoniae (planktonic, cutoff for positive-scoring molecules 3-fold increase, read-out: AK-based Prestwick Library Screening Results, K. pneumoniae (fold increase in extracellular AK activity)) it was 0.8; in assay [2] (planktonic, cutoff for positive-scoring molecules 3-fold increase, read-out: AK-based Prestwick Library Screening Results, A. baumannii (fold increase in extracellular AK activity)), 0.8; in the assay with P. aeruginosa (planktonic, cutoff for positive-scoring molecules 3-fold increase, read-out: AK-based Prestwick Library Screening Results, P. aeruginosa (fold increase in extracellular AK activity)), 0.9; with E. cloacae (planktonic, cutoff for positive-scoring molecules 3-fold increase, read-out: AK-based Prestwick Library Screening Results, E. cloacae (fold increase in extracellular AK activity)), 1. Also, in the assay on E. coli (planktonic, cutoff for positive-scoring molecules 3-fold increase, read-out: AK-based Prestwick Library Screening Results, E. coli (fold increase in extracellular AK activity)), the fold induction at 50 µM was found to be 1.
For `COc1ccc([C@@H]2CC(=O)c3c(O)cc(O)cc3O2)cc1O` [Hesperetin], the fold induction at 50 µM was 0.9 in the assay on E. faecium (384-well format, cutoff for positive-scoring molecules 3-fold increase, read-out: AK-based Prestwick Library Screening Results, E. faecium (increase in extracellular AK activity)); 0.5 in assay [1] (384-well format, cutoff for positive-scoring molecules 3-fold increase, read-out: AK-based Prestwick Library Screening Results, S. aureus (increase in extracellular AK activity)); 0.9 in the assay with K. pneumoniae (384-well format, cutoff for positive-scoring molecules 3-fold increase, read-out: AK-based Prestwick Library Screening Results, K. pneumoniae (increase in extracellular AK activity)); 1.1 in assay [2] (384-well format, cutoff for positive-scoring molecules 3-fold increase, read-out: AK-based Prestwick Library Screening Results, A. baumannii (increase in extracellular AK activity)); 0.9 in the assay with P. aeruginosa (384-well format, cutoff for positive-scoring molecules 3-fold increase, read-out: AK-based Prestwick Library Screening Results, P. aeruginosa (increase in extracellular AK activity)); 1.3 with E. cloacae (384-well format, cutoff for positive-scoring molecules 3-fold increase, read-out: AK-based Prestwick Library Screening Results, E. cloacae (increase in extracellular AK activity)). For the same molecule, the fold induction at 50 µM with E. coli (384-well format, cutoff for positive-scoring molecules 3-fold increase, read-out: AK-based Prestwick Library Screening Results, E. coli (increase in extracellular AK activity)) stood at 1.1.
`CCN(CC)CCNC(=O)c1cc(S(C)(=O)=O)ccc1OC` [Tiapride hydrochloride]: the fold induction at 50 µM in the assay with E. faecium (setting [3]) was 1.1; in assay [1] (setting [4]) it was 1; in the assay with K. pneumoniae (setting [5]), 0.9; in assay [2] (setting [6]), 1.1; with P. aeruginosa (setting [7]) it was 1.2; in the assay on E. cloacae (setting [8]) it was 1.5. Also, the fold induction at 50 µM in the assay on E. coli (setting [9]) came out at 1.4.
For `C[C@]12CC[C@H]3[C@@H](CC[C@]4(O)C[C@@H](O)CC[C@]34C=O)[C@@]1(O)CC[C@@H]2C1=CC(=O)OC1` [Strophanthidin], the fold induction at 50 µM in the assay with E. faecium ([…], read-out: AK-based Prestwick Library Screening Results, E. faecium (fold increase in extracellular AK activity)) stood at 1; in assay [1] ([…], read-out: AK-based Prestwick Library Screening Results, S. aureus (fold increase in extracellular AK activity)), 1.3; with K. pneumoniae ([…], read-out: AK-based Prestwick Library Screening Results, K. pneumoniae (fold increase in extracellular AK activity)), 1.1; in assay [2] ([…], read-out: AK-based Prestwick Library Screening Results, A. baumannii (fold increase in extracellular AK activity)), 1.3; in the assay with P. aeruginosa ([…], read-out: AK-based Prestwick Library Screening Results, P. aeruginosa (fold increase in extracellular AK activity)) it was 1.1; in the assay with E. cloacae ([…], read-out: AK-based Prestwick Library Screening Results, E. cloacae (fold increase in extracellular AK activity)) it was 1.3. The fold induction at 50 µM in the assay with E. coli ([…], read-out: AK-based Prestwick Library Screening Results, E. coli (fold increase in extracellular AK activity)) is 1.4.
